Measurements taken from paper PMC3888668 (Biological psychiatry, 2008).
Where a name gives a salt, the structure may show the parent alone. Read-outs that look alike come from different tables or passages of the source. Marks after values point to notes of the source that are not given here.

Experiments:
[1] = tested on: high-ethanol–consuming rats; details: .3–1 mg/kg, IP; 30 min and 24 hours of ethanol access; cited from earlier work
[2] = tested on: low-ethanol–consuming rats; assay: Continuous-access 10% ethanol two-bottle-choice drinking paradigm; details: for Preference for Ethanol: continuous access to 10% ethanol, mean ± SEM, n = 12
[3] = tested on: high-ethanol–consuming rats; details: for Preference for Ethanol: intermittent access to 20% ethanol, 24 hours, mean ± SEM, n = 12; for Ethanol consumption compared with vehicle: after 24 hours of ethanol access, intermittent access 20% ethanol; for Ethanol intake after 30 min: after 30 min of ethanol access, Figures 2A-2C in Supplement 1
[4] = target: T1, DOP-R (Rattus norvegicus, UniProt P33533); format: biochemical; details: striatal membranes
T1 sequence (P33533 whole entry): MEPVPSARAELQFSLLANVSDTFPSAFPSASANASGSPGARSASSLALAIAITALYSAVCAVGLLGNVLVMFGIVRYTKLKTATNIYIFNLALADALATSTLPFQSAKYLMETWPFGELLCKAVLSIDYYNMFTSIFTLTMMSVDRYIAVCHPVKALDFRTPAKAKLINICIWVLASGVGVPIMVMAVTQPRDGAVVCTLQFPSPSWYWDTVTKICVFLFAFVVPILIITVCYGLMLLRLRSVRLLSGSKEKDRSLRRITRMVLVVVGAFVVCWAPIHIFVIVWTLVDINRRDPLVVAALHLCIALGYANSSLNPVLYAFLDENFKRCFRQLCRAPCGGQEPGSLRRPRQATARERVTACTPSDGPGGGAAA

[5] = tested on: rats; assay: Anxiety; format: in vivo, rat; details: Figure 1D in Supplement 1
[6] = target: μ opioid peptide receptor (MOP-R); details: cited from earlier work
[7] = Preliminary pharmacokinetics in plasma; format: in vivo; details: IP, rat plasma
[8] = target: δ opioid peptide receptor (DOP-R); details: cited from earlier work
[9] = tested on: rats; assay: Morphine-mediated analgesia; format: in vivo, rat; details: Figures 1A and 1B in Supplement 1
[10] = tested on: rats; assay: Conditioned place preference; format: in vivo, rat; details: Figure 1C in Supplement 1
[11] = tested on: high-ethanol–consuming rats; assay: Daily administration for 28 days, intermittent-access 20% ethanol, naive rats
[12] = target: T1, DOP-R; format: biochemical; details: [35S]GTPγS binding

Compound: O=C1CC[C@@]2(O)[C@H]3Cc4ccc(O)c5c4[C@@]2(CCN3CC2CC2)[C@H]1O5 [Naltrexone]
- Ethanol intake at lower doses [1]: reduce ethanol intake after 30 min but not after 24 hours
- Preference for Ethanol ([2]; 5 mg/kg IP, 24 hours): 32.7 ± 5.9%
- Preference for Ethanol ([2]; 15 mg/kg IP, 24 hours): 33.8 ± 7.3%
- Preference for Ethanol ([2]; 30 mg/kg IP, 24 hours): 37.0 ± 4.9%
- Ethanol consumption compared with vehicle ([2]; all doses (5, 15, 30 mg/kg IP), after 24 hours of access, continuous access 10% ethanol): did not produce any significant effect on ethanol consumption
- Ethanol consumption after a limited access period ([2]; limited access period 1 hour, continuous access 10% ethanol, data not shown): a reduction in ethanol consumption was observed
- Preference for Ethanol ([3]; 5 mg/kg IP): 55.2 ± 7.1%
- Preference for Ethanol ([3]; 15 mg/kg IP): 54.1 ± 6.4%
- Preference for Ethanol ([3]; 30 mg/kg IP): 54.4 ± 4.7%
- Ethanol consumption compared with vehicle ([3]; 15 and 30 mg/kg IP): significantly reduce ethanol consumption
- Ethanol intake after 30 min [3]: selectively reduced ethanol intake

Compound: Oc1ccc2c3c1O[C@H]1c4[nH]c5ccccc5c4C[C@@]4(O)[C@@H](C2)N(CC2CC2)CC[C@]314 [Naltrindole, naltrindole]
- IC50 ([4]; Mean (± SEM) IC50 for Striatal DOP-R Inhibition, DPDPE Inhibition, DPDPE (10 μmol/L)-stimulated [35S]GTPγS binding): 0.4 ± 0.02 nM
- IC50 ([4]; Mean (± SEM) IC50 for Striatal DOP-R Inhibition, SNC80 Inhibition, SNC80 (10 μmol/L)-stimulated [35S]GTPγS binding): 31 ± 3.9 nM
- IC50 ([4]; Mean (± SEM) IC50 for Striatal DOP-R Inhibition, TAN67 Inhibition, TAN67 (10 μmol/L)-stimulated [35S]GTPγS binding): > 10000 nM
- Preference for Ethanol ([2]; 1 mg/kg IP, 24 hours): 38.2 ± 3.7%
- Preference for Ethanol ([2]; 5 mg/kg IP, 24 hours): 31.7 ± 4.0%
- Preference for Ethanol ([2]; 10 mg/kg IP, 24 hours): 31.0 ± 3.3%
- Ethanol consumption compared with vehicle ([2]; 5 and 10 mg/kg IP, 24 hours, continuous access 10% ethanol): significantly reduce ethanol consumption
- Preference for Ethanol ([3]; 1 mg/kg IP): 53.4 ± 7.9%
- Preference for Ethanol ([3]; 5 mg/kg IP): 55.1 ± 8.3%
- Preference for Ethanol ([3]; 10 mg/kg IP): 48.8 ± 6.1%
- Ethanol consumption compared with vehicle ([3]; all doses tested, IP): did not significantly affect ethanol consumption

Compound: Oc1ccc2c3c1O[C@H]1c4ncc(-c5ccc(Cl)cc5)cc4C[C@@]4(O)[C@@H](C2)N(CC2CC2)CC[C@]314 [SoRI-9409, 5’-(4-Chlorophenyl)-17-(cyclopropylmethyl)-6,7-didehydro-3,14-dihydroxy-4,5-α-epoxypyrido-[2’,3’:6,7]morphinan]
- Anxiolytic or anxiogenic effect [5]: is not anxiolytic or anxiogenic
- Ki ([6]; read-out: Ki, binding affinity for the MOP-R): 51 ± 8 nM
- reduced binding affinity for the MOP-R relative to naltrexone ([6]; versus naltrexone structure): approximately 20 fold
- IC50 ([4]; read-out: Mean (± SEM) IC50 for Striatal DOP-R Inhibition, DPDPE Inhibition, DPDPE (10 μmol/L)-stimulated [35S]GTPγS binding): 3.5 ± 0.3 nM
- IC50 ([4]; read-out: Mean (± SEM) IC50 for Striatal DOP-R Inhibition, SNC80 Inhibition, SNC80 (10 μmol/L)-stimulated [35S]GTPγS binding): 31 ± 3.2 nM
- IC50 ([4]; read-out: Mean (± SEM) IC50 for Striatal DOP-R Inhibition, TAN67 Inhibition, TAN67 (10 μmol/L)-stimulated [35S]GTPγS binding): 56 ± 8.2 nM
- Ethanol consumption compared with vehicle ([2]; 5 mg/kg IP, 24 hours, continuous access 10% ethanol): but not the 5-mg/kg dose
- Preference for Ethanol ([2]; 5 mg/kg IP, 24 hours): 39.5 ± 8.6%
- Preference for Ethanol ([2]; 15 mg/kg IP, 24 hours): 32.4 ± 7.3 ^b %
- Preference for Ethanol ([2]; 30 mg/kg IP, 24 hours): 24.0 ± 6.2 ^b %
- Ethanol consumption compared with vehicle ([2]; 15 and 30 mg/kg IP, 24 hours, continuous access 10% ethanol): significantly reduce ethanol consumption
- Detection in plasma after dosing [7]: still detectable in plasma at 12 hours after dosing
- Elimination half-life ([7]; preliminary investigation): 2.5 h
- Ki ([8]; read-out: Ki, binding affinity at the DOP-R): 2.2 ± 0.2 nM
- higher binding affinity at the DOP-R relative to naltrexone ([8]; versus naltrexone structure): approximately 20 fold
- Preference for Ethanol ([3]; 5 mg/kg IP): 49.9 ± 7.3%
- Preference for Ethanol ([3]; 15 mg/kg IP): 42.1 ± 7.4 ^a %
- Preference for Ethanol ([3]; 30 mg/kg IP): 32.8 ± 4.9 ^a %
- Ethanol intake after 30 min [3]: selectively reduced ethanol intake
- Ethanol consumption compared with vehicle ([3]; all doses tested, IP): significantly reduced ethanol consumption at all doses
- Effectiveness at reducing ethanol consumption compared with naltrexone or naltrindole ([3]; high-ethanol–consuming animals): threefold more effective
- Induction of analgesia and hyperalgesia [9]: did not reduce morphine-mediated analgesia or induce analgesia and hyperalgesia
- Conditioned place preference or aversion [10]: does not produce conditioned place preference or aversion
- Escalation and maintenance of ethanol intake compared with vehicle ([11]; 5 mg/kg IP daily for 28 days (12 ethanol exposures), n = 16): significantly reduced the escalation and maintenance of ethanol intake
- Reduction of ethanol intake compared with saline-treated rats ([11]; 5 mg/kg IP daily, for up to 28 days): > 50%

Compound: CN1CCC2(c3cccc(O)c3)Cc3nc4ccccc4cc3CC2C1 (stereo not drawn) [TAN67, (2-methyl-4a (α)-(3-hydroxyphenyl)-1,2,3,4,4a,5,12, 12a(α)-octahydro-quinolino[2,3,3,g]isoquinoline) dihydrobromide]
- EC50 ([12]; read-out: Mean (± SEM) EC50 for DOP-R Stimulation, Spinal Cord, spinal cord membranes): 3700 ± 2200 nM
- EC50 ([12]; read-out: Mean (± SEM) EC50 for DOP-R Stimulation, Striatum, striatum membranes): 372 ± 20 nM
